Experiments:
[1] = biological target: T1, C-X-C chemokine receptor type 2 (Homo sapiens, UniProt P25025); test: Displacement of IL8 from CXCR2 receptor
T1 sequence (P25025 whole entry): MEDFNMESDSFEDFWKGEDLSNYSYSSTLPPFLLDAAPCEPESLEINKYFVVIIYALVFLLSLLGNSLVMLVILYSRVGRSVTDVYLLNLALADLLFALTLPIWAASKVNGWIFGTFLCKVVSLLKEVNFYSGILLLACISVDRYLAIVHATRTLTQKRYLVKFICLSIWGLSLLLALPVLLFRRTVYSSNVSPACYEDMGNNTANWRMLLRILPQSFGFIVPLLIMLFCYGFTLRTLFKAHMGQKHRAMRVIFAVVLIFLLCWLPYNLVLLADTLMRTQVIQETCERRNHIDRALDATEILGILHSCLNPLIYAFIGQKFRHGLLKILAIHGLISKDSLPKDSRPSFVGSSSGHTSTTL

[2] = biological target: T2, C-X-C chemokine receptor type 1 (Homo sapiens, UniProt P25024); test: Displacement of IL8 from CXCR1 receptor
T2 sequence (P25024 whole entry): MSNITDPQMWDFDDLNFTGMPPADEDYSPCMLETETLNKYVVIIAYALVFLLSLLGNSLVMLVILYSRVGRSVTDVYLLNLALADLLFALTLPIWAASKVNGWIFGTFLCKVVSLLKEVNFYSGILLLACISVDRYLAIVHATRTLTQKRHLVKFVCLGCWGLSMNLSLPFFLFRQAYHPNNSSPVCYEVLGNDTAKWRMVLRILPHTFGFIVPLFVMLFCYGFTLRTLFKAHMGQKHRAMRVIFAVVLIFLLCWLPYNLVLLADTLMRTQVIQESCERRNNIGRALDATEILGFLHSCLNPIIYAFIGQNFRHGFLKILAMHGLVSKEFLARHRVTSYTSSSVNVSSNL

[3] = biological target: T1, C-X-C chemokine receptor type 2; test: Displacement of [125I]CXCL1 from CXCR2 receptor in human PMN assessed as myeloperoxidase release
[4] = biological target: T2, C-X-C chemokine receptor type 1; test: Displacement of [125I]CXCL8 from CXCR1 receptor in human PMN assessed as myeloperoxidase release

| Compound | Ki [1] [nM] | Ki [2] [nM] | IC50 [3] [nM] | IC50 [4] [µM] |
| --- | --- | --- | --- | --- |
| CC[C@@H](Nc1nsnc1Nc1cccc(C(=O)N(C)C)c1O)c1cc(F)cc(F)c1 | 4100 | – | – | – |
| Cc1ccc([C@H](Nc2nsnc2Nc2cccc(C(=O)N(C)C)c2O)C(F)(F)F)o1 | 10000 | 53 | – | – |
| CN(C)C(=O)c1cccc(Nc2nsnc2N[C@@H](c2ccco2)C(C)(C)C)c1O | 381 | – | – | – |
| Cc1ccc([C@H](Nc2nsnc2Nc2cccc(C(=O)N(C)C)c2O)C(C)C)s1 | 1300 | – | – | – |
| CN(C)C(=O)c1cccc(Nc2nsnc2N[C@@H](c2ccc3c(c2)OCO3)C(C)(C)C)c1O | 330 | 52 | – | – |
| CC[C@@H](Nc1nsnc1Nc1cccc(C(=O)N(C)C)c1O)c1ccc(C)o1 | 3000 | – | – | – |
| CN(C)C(=O)c1cccc(Nc2nsnc2N[C@@H](c2ccc3c(c2)CCC3)C(C)(C)C)c1O | 10000 | – | – | – |
| Cc1ccc([C@H](Nc2nsnc2Nc2cccc(C(=O)N(C)C)c2O)C(C)(C)C)o1 | 91 | – | 21 | – |
| Cc1ccc([C@H](Nc2nsnc2Nc2ccc(C(F)(F)F)c(C(=O)N(C)C)c2O)C(C)(C)C)o1 | 168 | 38 | – | – |
| CC[C@@H](Nc1nsnc1Nc1cccc(C(=O)N(C)C)c1O)c1ccccc1 | 5110 | – | – | – |
| Cc1ccc([C@H](Nc2nsnc2Nc2cccc(C(=O)N3CCOCC3)c2O)C(C)(C)C)o1 | 1270 | – | – | – |

The remaining compounds from weak to strong by Ki [1], led by results:

| Ki [1] [nM] | Ki [2] [nM] | IC50 [3] [nM] | IC50 [4] [µM] | Compound |
| --- | --- | --- | --- | --- |
| 10000 | – | – | – | C[C@H](Nc1nsnc1Nc1cccc(C(=O)N(C)C)c1O)C(C)(C)C |
| 10000 | – | – | – | CN(C)C(=O)c1cccc(Nc2nsnc2N[C@@H](c2ccc3c(c2)OCCO3)C(C)(C)C)c1O |
| 4300 | 36 | – | – | CN(C)C(=O)c1cccc(Nc2nsnc2NC(c2ccccc2)C(F)(F)F)c1O (stereo not drawn) |
| 2400 | 15 | 36 | 3.91 | Cc1ccc([C@H](Nc2nsnc2Nc2cccc(C(=O)N(C)C)c2O)C(C)C)o1 |
| 2360 | – | – | – | CN(C)C(=O)c1cccc(Nc2nsnc2N[C@@H](c2cc3ccccc3o2)C(C)(C)C)c1O |
| 2280 | – | – | – | CC[C@@H](Nc1nsnc1Nc1cccc(C(=O)N(C)C)c1O)c1cc(C)co1 |
| 2030 | – | – | – | CN(C)C(=O)c1cccc(Nc2nsnc2N[C@@H](c2ccccc2)C2CC2)c1O |
| 1300 | 78 | – | – | CN(C)C(=O)c1cccc(Nc2nsnc2N[C@@H](c2cccc(F)c2)C(C)(C)C)c1O |
| 749 | – | – | – | CC[C@@H](Nc1nsnc1Nc1ccc(C(F)(F)F)c(C(=O)N(C)C)c1O)c1ccc(C)o1 |
| 114 | 13 | – | – | Cc1ccc([C@H](Nc2nsnc2Nc2cccc(C(=O)N(C)CCC#N)c2O)C(C)(C)C)o1 |
| 79 | – | – | – | CC(C)c1coc([C@H](Nc2nsnc2Nc2cccc(C(=O)N(C)CCC#N)c2O)C(C)(C)C)c1 |
| 44 | – | – | – | CN(CCC#N)C(=O)c1cccc(Nc2nsnc2N[C@@H](c2ccco2)C(C)(C)C)c1O |

— ChEMBL document CHEMBL1153271, “3,4-Diamino-1,2,5-thiadiazole as potent and selective CXCR2 antagonists” (Bioorg Med Chem Lett, 2009)
